These results are taken from patent US20240293587A1, “CXCR4-TARGETED DIAGNOSTIC AND THERAPEUTIC AGENTS WITH REDUCED SPECIES SELECTIVITY” (TECHNISCHE UNIVERSITÄT MÜNCHEN, priority 2018, published 2024).

Starred links: 1 amine or outer side, 2 acyl side, 3 side chain; linkers in the order of their positions; H or OH if unused. Non-standard residues stand in square brackets, D forms with d. Residues, ends and D or L forms follow the SMILES beside them. Groups on a side chain read outwards from the residue. *: point of attachment. dAla(N-(6-guanidinohexyl)) = C[C@@H](NCCCCCCNC(=N)N)C(=O)O; DOTA = O=C(O)CN1CCN(CC(=O)O)CCN(CC(=O)*)CCN(CC(=O)O)CC1; X2 = CC(=O)NCCCCNC(=N)NCCCCCCN([C@H](C)C(=O)[*:2])[*:1]; 2Nal = N[C@@H](Cc1ccc2ccccc2c1)C(=O)O; dNMeOrn = CN[C@H](CCCN)C(=O)O; 4Amb = NCc1ccc(C(=O)O)cc1

The target in experiment [1] is T1, human CXCR4 (hCXCR4) (Homo sapiens (Human), UniProt P61073). Put plainly: Competition binding on Jurkat cells with [125I]R1 as radioligand. To be noted: 200.000 cells/sample, [125I]R1 radioligand, mean ± SD. Here is the method: (§1) For the determination of hCXCR4-affinity, competition binding experiments were performed using Jurkat cells and [^125I]FC131 or [^125I]R1 as radioligand. Affinity to mCXCR4 and rCXCR4 was determined using Eμ-Myc1080 mouse B-cell lyphoma cells ^57 or C6 rat glioma cells, respectively, and [^125I]R1 as the radioligand.
(§2) For IC50 determination using Jurkat or Eμ-Myc1080 cells, samples containing 2×10^5 cells (or 4×10^5 cells; exact cell number used in the respective evaluations is given in the results section) in Hank's balanced salt solution (HBSS)/1% Bovine Serum Albumin (BSA) were incubated with 100.000 cpm of the respective radioligand (approx. 0.1 nM) in the presence of increasing concentrations (10^−11 to 10^−5 M) of the respective peptide of interest (n=3 per concentration). The total sample volume was 250 μL. After incubation at room temperature (RT) for 120 min with gentle agitation (200 mot/min), the tubes were centrifuged (5 min, 450g, Megafuge 1.0, Heraeus Thermo Scientific) and the supernatant was carefully removed. After washing twice with 400 μL of cold HBSS, the amount of cell-bound radioligand was quantified using a […]-counter.
(§3) IC50 values were calculated using PRISM 6 software (Graph Pad Software, San Diego, CA) using a three-parameter sigmoidal dose response curve fit.

The next experiment addresses mouse CXCR4 (mCXCR4) (Mus musculus (Mouse), UniProt P70658). Put plainly: Competition binding on Eμ-Myc1080 mouse B-cell lymphoma cells with [125I]R1 as radioligand. To be noted: 200.000 cells/sample, [125I]R1 radioligand, mean ± SD. The procedure: as §1, §2, §3
The target in experiment [2] is T1, human CXCR4 (hCXCR4). Put plainly: Competition binding on Jurkat cells with [125I]FC-131 as radioligand. To be noted: [125I]FC-131 radioligand, mean ± SD. The procedure:
as §1, §2, §3

For another experiment, the target named is murine receptor (mCXCR4) (Mus musculus (Mouse), UniProt P70658). As to conditions: background statement; cited from earlier work.
Chain of murine receptor (mCXCR4) (P70658 whole entry): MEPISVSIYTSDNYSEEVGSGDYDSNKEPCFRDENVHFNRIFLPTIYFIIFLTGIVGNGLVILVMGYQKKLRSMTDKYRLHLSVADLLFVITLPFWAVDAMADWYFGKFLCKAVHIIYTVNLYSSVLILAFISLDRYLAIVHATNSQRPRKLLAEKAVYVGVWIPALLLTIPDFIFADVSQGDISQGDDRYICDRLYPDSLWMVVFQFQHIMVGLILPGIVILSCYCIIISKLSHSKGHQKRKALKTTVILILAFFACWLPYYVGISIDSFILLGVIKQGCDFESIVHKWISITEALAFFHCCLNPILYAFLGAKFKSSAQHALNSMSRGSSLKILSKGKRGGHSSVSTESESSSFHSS

Chain of mouse CXCR4 (mCXCR4) (P70658 whole entry): as above
T1 sequence (P61073 whole entry): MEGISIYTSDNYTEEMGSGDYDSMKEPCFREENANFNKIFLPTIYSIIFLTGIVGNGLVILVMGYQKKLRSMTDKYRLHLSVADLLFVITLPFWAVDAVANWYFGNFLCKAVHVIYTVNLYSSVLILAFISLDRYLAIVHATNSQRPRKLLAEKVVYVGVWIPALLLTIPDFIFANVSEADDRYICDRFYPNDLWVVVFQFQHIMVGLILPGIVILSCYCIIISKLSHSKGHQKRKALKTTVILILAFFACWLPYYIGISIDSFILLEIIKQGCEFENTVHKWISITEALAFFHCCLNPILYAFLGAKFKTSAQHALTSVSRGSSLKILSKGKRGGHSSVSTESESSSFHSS

Turning to “cyclo[ya′(hexyluanidino)RNalc(-CH2—CO—NH—CH2-(m-aryl)-CH2—NH-^natGa-DOTA)] [Pc5b]”, the IC50 at human CXCR4 (hCXCR4) [1] was found to be 64 ± 29 nM; at mouse CXCR4 (mCXCR4), 63 ± 19 nM; on human CXCR4 (hCXCR4) [2] (400.000 cells/sample) it was 31 ± 3 nM.

In the case of `CC(=O)NCCCCNC(=N)NCCCCCCN1C(=O)[C@@H](Cc2ccc(O)cc2)NC(=O)CNC(=O)[C@H](Cc2ccc3ccccc3c2)NC(=O)[C@H](CCCNC(=N)N)NC(=O)[C@H]1C` [P3, c(y-(NHex-Gua-But-Ac)a-R-Nal-G)] (cyclo([dY][X2]R[2Nal]G)), the IC50 at human CXCR4 (hCXCR4) [2] (200.000 cells/sample) was found to be 2.1 ± 0.5 nM.

On to `C[C@@H]1C(=O)N[C@@H](CCCNC(=N)N)C(=O)N[C@@H](Cc2ccc3ccccc3c2)C(=O)NCC(=O)N[C@H](Cc2ccc(O)cc2)C(=O)N1CCCCCCNC(=N)NCCCCCCNC(=O)CN1CCN(CC(=O)O)CCN(CC(=O)O)CCN(CC(=O)O)CC1` (natGa complex, metal not drawn) [P5c], for which the IC50 at human CXCR4 (hCXCR4) [1] turned out to be 13 ± 2 nM; on mouse CXCR4 (mCXCR4), 12.7 ± 4.6 nM.

Turning to `CN1C(=O)[C@@H](Cc2ccc(O)cc2)NC(=O)CNC(=O)[C@H](Cc2ccc3ccccc3c2)NC(=O)[C@H](CCCN=C(N)N)NC(=O)[C@H]1CCCNC(=O)c1ccc(CNC(=O)CN2CCN(CC(=O)[O-])CCN(CC(=O)[O-])CCN(CC(=O)[O-])CC2)cc1.[68Ga+3]` [[^68Ga]pentixafor, cyclo(D-Tyr^1-D-[NMe]Orn^2(AMBS-DOTA)-Arg^3-Nal^4-Gly^5)] (cyclo([2Nal]G[dY][dNMeOrn]([4Amb-DOTA])R)), on murine receptor (mCXCR4), the “affinity to mCXCR4 (in words)” value was “virtually no affinity”.

For the molecule `C[C@@H]1C(=O)N[C@@H](CCCNC(=N)N)C(=O)N[C@@H](Cc2ccc3ccccc3c2)C(=O)NCC(=O)N[C@H](Cc2ccc(O)cc2)C(=O)N1CCCCCCNC(=N)NCCCCCCNC(=O)CCOCCOCCOCCOCCNC(=O)CCCCC[N+]1=C(/C=C/C=C/C=C2/N(C)c3ccc(S(=O)(=O)O)cc3C2(C)C)C(C)(C)c2cc(S(=O)(=O)[O-])ccc21` [P5g, Sulfo2-Cy5-PEG4-Hex-CPCR4.3], the results for the IC50 on human CXCR4 (hCXCR4) [1], on mouse CXCR4 (mCXCR4) and on human CXCR4 (hCXCR4) [2] (200.000 cells/sample) were 91 ± 49 nM, 63 ± 23 nM and 40 ± 5 nM, respectively.

For the molecule “cyclo[ya′(hexylguanidino)RNalc(-CH2—CO—NH—CH2-(m-aryl)-CH2—NH-^natCu-DOTA)] [Pc5d]”, the IC50 at human CXCR4 (hCXCR4) [2] (400.000 cells/sample) is 78 ± 5 nM.

As to “cyclo(D-3-iodo-Tyr^1-D-[NMe]Orn^2(AMBS-DOTA)-Arg^3-Nal^4-Gly^5) [[^177Lu/^90Y]pentixather]”, the “affinity to mCXCR4 (in words)” value at murine receptor (mCXCR4) is listed as “virtually no affinity”.

`C[C@@H]1C(=O)N[C@@H](CCCNC(=N)N)C(=O)N[C@@H](Cc2ccc3ccccc3c2)C(=O)N[C@H](CS)C(=O)N[C@H](Cc2ccc(O)cc2)C(=O)N1CCCCCCNC(=N)N` [Pc0, Cyclo(ya′(hexylguanidino)Rnalc)] (cyclo([2Nal][dC][dY][dAla(N-(6-guanidinohexyl))]R)) showed an IC50 at human CXCR4 (hCXCR4) [2] (400.000 cells/sample) of 35 ± 2 nM.

With `C[C@@H]1C(=O)N[C@@H](CCCNC(=N)N)C(=O)N[C@@H](Cc2ccc3ccccc3c2)C(=O)NCC(=O)N[C@H](Cc2ccc(O)cc2)C(=O)N1CCCCCCNC(=N)NCCCCCCNC(=O)CCCCC[N+]1=C(/C=C/C=C/C=C2/N(C)c3ccc(S(=O)(=O)O)cc3C2(C)C)C(C)(C)c2cc(S(=O)(=O)[O-])ccc21` [P5e, Sulfo2-Cy5-Hex-CPCR4.3], the IC50 at human CXCR4 (hCXCR4) [1] stood at 156 ± 11 nM; at mouse CXCR4 (mCXCR4), 156 ± 7 nM.

On to `C[C@@H]1C(=O)N[C@@H](CCCNC(=N)N)C(=O)N[C@@H](Cc2ccc3ccccc3c2)C(=O)NCC(=O)N[C@H](Cc2ccc(O)cc2)C(=O)N1CCCCCCNC(=N)NCCCCCCNC(=O)CCCCCN1/C(=C/C=C/C=C/C2=[N+](CCCCCC(=O)NCCCCCCNC(=N)NCCCCCCN3C(=O)[C@@H](Cc4ccc(O)cc4)NC(=O)CNC(=O)[C@H](Cc4ccc5ccccc5c4)NC(=O)[C@H](CCCNC(=N)N)NC(=O)[C@H]3C)c3ccc(S(=O)(=O)[O-])cc3C2(C)C)C(C)(C)c2cc(S(=O)(=O)O)ccc21` [P5f, Sulfo2-Cy5(Hex-CPCR4.3)2], for which the IC50 on human CXCR4 (hCXCR4) [1] amounted to 115 ± 39 nM; at mouse CXCR4 (mCXCR4), 136 ± 26 nM.

Turning to “cyclo[ya′(hexylguanidino)RNalc(-CH2—CO—NH—CH2-(m-aryl)-CH2—NH-^natLu-DOTA)] [Pc5c]”, the IC50 at human CXCR4 (hCXCR4) [2] (400.000 cells/sample) was determined as 51 ± 4 nM.

At mouse CXCR4 (mCXCR4), `C[C@@H]1C(=O)N[C@@H](CCCNC(=N)N)C(=O)N[C@@H](Cc2ccc3ccccc3c2)C(=O)NCC(=O)N[C@H](Cc2ccc(O)cc2)C(=O)N1CCCCCCNC(=N)NCCCCCCNC(=O)CN1CCN(CC(=O)O)CCN(CC(=O)O)CCN(CC(=O)O)CC1` (natLu complex, metal not drawn) [P5d] showed an IC50 of 17 ± 3.3 nM.

A word on the IC50: it is the concentration needed to halve the response being measured. Low values mean greater potency in that assay, high ones weaker potency in that assay.
